Test results as given in patent publication US20100069249A1, “HERBICIDE COMBINATION COMPRISING DIMETHOXYTRIAZINYL-SUBSTITUTED DIFLUOROMETHANESULFONYLANILIDES” (BAYER CROPSCIENCE AG, priority 2008, published 2010).

Assays:
Assay in all cases: Post-emergence action against weeds, greenhouse pot test
Assay type in all cases: in vivo
[1] = system: Zea mays (ZEAMX)
Procedure: (§1) Seeds or rhizome pieces of mono- and dicotyledonous harmful and useful plants were placed in peat pots (diameter 4 cm) filled with sandy loam and then covered with soil. The pots were kept in a greenhouse under optimum conditions. In addition, harmful plants encountered in paddy rice cultivation were cultivated in pots with a water level 2 cm above the soil surface.
(§2) About three weeks after the start of the cultivation, the test plants were treated at the 2- to 3-leaf stage. The herbicides, formulated as powder or liquid concentrates, were, either alone or in the combinations according to the invention, sprayed in various dosages on to the green parts of the plants using an application rate of 600 l of water/ha (converted). For further cultivation of the plants, the pots were then again kept under optimum conditions in a greenhouse.
(§3) The visual scoring of the herbicidal effects was carried out in intervals up to 21 days after the treatment. Scoring was carried out in percent in comparison to the untreated control plants. 0%=no herbicidal activity, 100%=complete herbicidal activity=complete kill.
(§4) The percentages from the treatments with the herbicides alone (=individual application) and with the combinations according to the invention (=mixtures) were employed to calculate interactions using the method of Colby. When the observed efficacies of the mixtures exceed the formal sum of the values of the tests with individual applications, they also exceed the expected value according to Colby, which is calculated using the formula below (cf. S. R. Colby; in Weeds 15 (1967) pp. 20 to 22):
(§5) • A, B=activity of components A and B in percent at a dosage of a and b g of ai/ha (=gram of active substance per hectare), respectively. • E=expected value in % at a dosage of a+b g of ai/ha.

[2] = system: Oryza sativa (ORYSA)
Procedure: as §1, §2, §3, §4, §5

[3] = system: Triticum aestivum (TRZAS)
Procedure: as §1, §2, §3, §4, §5

[4] = system: Fallopia (ex Polygonum) convolvulus (POLCO); conditions: 21 DAT; B 50 g of ai/ha
Procedure: as §1
as §2, with “greenhouse. […]” for “greenhouse.”
as §4, with “22): […]” for “22):”

[5] = system: Matricaria inodora (MATIN); conditions: 21 DAT; B 50 g of ai/ha
Procedure: as §1, §2, §3, §4, §5

[6] = system: Viola tricolor (VIOTR); conditions: 21 DAT; B 50 g of ai/ha
Procedure: as §1, §2, §3, §4, §5

[7] = system: Alopecurus myosuroides (ALOMY); conditions: 21 DAT
Procedure: as §1, §2, §3, §4, §5

[8] = system: Setaria viridis (SETVI); conditions: 21 DAT; B 50 g of ai/ha
Procedure: as §1, §2, §3, §4, §5

Compound | % activity found ([1]; 21 DAT, A 4 g of ai/ha) [%] | % activity found ([2]; 10/21 DAT, A 4 g of ai/ha) [%] | % activity found ([3]; 21 DAT, A 12 g of ai/ha) [%] | % activity found [4] [%] | % activity found ([1]; 10 DAT, B 50 g of ai/ha) [%] | % activity found ([1]; 10 DAT, B 150 g of ai/ha) [%] | % activity found ([1]; 21 DAT, B 50 g of ai/ha) [%] | % activity found ([1]; 21 DAT, B 150 g of ai/ha) [%] | % activity found [5] [%] | % activity found ([2]; 10/21 DAT, B 50 g of ai/ha) [%] | % activity found ([2]; 10/21 DAT, B 150 g of ai/ha) [%] | % activity found ([2]; 21 DAT, B 150 g of ai/ha) [%] | % activity found ([3]; 10 DAT, B 50 g of ai/ha) [%] | % activity found ([3]; 10 DAT, B 150 g of ai/ha) [%] | % activity found ([3]; 21 DAT, B 50 g of ai/ha) [%] | % activity found [6] [%] | % activity found ([7]; B 50 g of ai/ha) [%] | % activity found ([7]; B 150 g of ai/ha) [%] | % activity found [8] [%]
COc1nc(OC)nc(C(=O)c2cccc(F)c2N(C)S(=O)(=O)C(F)F)n1 [A-1] | 0 | 0 | 0 |  |  |  |  |  |  |  |  |  |  |  |  |  |  |  | 
CP(=O)(O)CC[C@H](N)C(=O)O [B1-8, (2S)-2-amino-4-[hydroxy(methyl)phosphinyl]butanoic acid] |  |  |  | 40 | 30 | 40 | 0 | 0 | 60 | 10 | 30 | 30 | 20 | 30 | 20 | 40 | 0 | 20 | 80
